According to US9790253B2, “OSW-1 analogs and conjugates, and uses thereof” (priority 2011, dated 2017):

Tests used:
[1] = tested on: CHO-K1 cells; experiment: Sphingomyelin biosynthesis, [3H]-serine pulse-labeling, CHO-K1; type: cell-based
Method: Sphingomyelin is biosynthesized from ceramide at the Golgi apparatus. Ceramide is primarily transported from the ER to the Golgi by ceramide transport protein (CERT), and the transport activity of CERT is both OSBP1- and VAP-A dependent. […] To determine whether the ORPphilins affect sphingomyelin synthesis, pulse-labeling with [^3H]-serine was performed in CHO-K1 and HCT-116 cells and the amount of tritium incorporated into sphingomyelin and other lipids then measured. Cells were treated with vehicle or compound for 6 h, and in the last 2 h the cells were pulsed with 10 μCi [^3H]-serine. Lipids were extracted and isolated by TLC, and label incorporation into sphingomyelin was measured by scintillation counting.

[2] = tested on: OSBP1 localization in A549 cells; experiment: OSBP1 localization by immunofluorescence microscopy, A549; type: cell-based, human
Method: (§1) Immunofluorescence microscopy. HCT-116 or A549 (adenocarcinomic human alveolar basal epithelial) cells were plated on coverslips in 6-well plates. After 72 h, the culture media was removed and replaced with media containing either compound or vehicle control. At the indicated time-points, the cells were fixed for 10 min using 3.7% formaldehyde in PBS. The coverslips were washed with PBS and permeabilized for 5 min with 0.5% Triton X-100 in PBS. Following PBS washing, the coverslips were blocked for 30 min using Image-iT™ FX (Invitrogen), washed with PBS, and then blocked for 30 min at room temperature (RT) with 1% BSA in PBS (BSA/PBS). The coverslips were then incubated overnight at 4° C. with a primary antibody solution in BSA/PBS. The coverslips were washed with BSA/PBS and incubated for 60 min at RT with Alexa Fluor®-conjugated secondary antibodies (Invitrogen) in BSA/PBS, with the final 30 min including incubation with Hoescht 33258. The coverslips were then washed sequentially with BSA/PBS, PBS, and water and finally mounted on microscope slides using Aqua Poly/Mount (Polysciences Inc.). Imaging data was acquired using Zeiss LSM 510 META scanning confocal microscope.
Perturbations of OSBP1 localization by 1, 2, and 4b in A549 cells were also observed.

[3] = tested on: OSBP1 localization in HCT-116 cells; experiment: OSBP1 localization by immunofluorescence microscopy, HCT-116; type: cell-based, human; settings: 4 h treatment
Method: as §1
Although the function of OSBP1 is not yet fully elucidated, several cellular activities have been observed. For instance, OSBP1 translocates from cytoplasmic sites to the trans-Golgi network (TGN) upon addition of 25-OHC to cells. HCT-116 cells were treated with ORPphilins for short time periods (4 h) and the effects on OSBP1 localization monitored using immunofluorescence microscopy.
OSBP1 (green) and trans-Golgi protein P230 (red) were visualized in HCT-116 cells using indirect immunofluorescence microscopy. Cells were treated with compound for 4 h, fixed with 3.7% formaldehyde/PBS, washed, and permeabilized using 0.5% Triton X-100 in PBS. Proteins were labelled using specific primary antibodies against OSBP1 and P230 overnight at 4° C. After washing, cells were treated with Alexa Fluor 488 and Alexa Fluor 546 secondary antibodies for 1 h at RT.

[4] = molecular target: T1, ORP4L-myc-his (Homo sapiens, UniProt Q969R2); experiment: [3H]-25-hydroxycholesterol charcoal-dextran binding assay with ORP4L-myc-his; settings: read-out: [^3H]-25-OHC K1 (nM) ORP4L-myc-his; competition with 20 nM [3H]-25-OHC, HEK-293T S100 lysate, 4° C., 16 h
T1 sequence (Q969R2 1-916): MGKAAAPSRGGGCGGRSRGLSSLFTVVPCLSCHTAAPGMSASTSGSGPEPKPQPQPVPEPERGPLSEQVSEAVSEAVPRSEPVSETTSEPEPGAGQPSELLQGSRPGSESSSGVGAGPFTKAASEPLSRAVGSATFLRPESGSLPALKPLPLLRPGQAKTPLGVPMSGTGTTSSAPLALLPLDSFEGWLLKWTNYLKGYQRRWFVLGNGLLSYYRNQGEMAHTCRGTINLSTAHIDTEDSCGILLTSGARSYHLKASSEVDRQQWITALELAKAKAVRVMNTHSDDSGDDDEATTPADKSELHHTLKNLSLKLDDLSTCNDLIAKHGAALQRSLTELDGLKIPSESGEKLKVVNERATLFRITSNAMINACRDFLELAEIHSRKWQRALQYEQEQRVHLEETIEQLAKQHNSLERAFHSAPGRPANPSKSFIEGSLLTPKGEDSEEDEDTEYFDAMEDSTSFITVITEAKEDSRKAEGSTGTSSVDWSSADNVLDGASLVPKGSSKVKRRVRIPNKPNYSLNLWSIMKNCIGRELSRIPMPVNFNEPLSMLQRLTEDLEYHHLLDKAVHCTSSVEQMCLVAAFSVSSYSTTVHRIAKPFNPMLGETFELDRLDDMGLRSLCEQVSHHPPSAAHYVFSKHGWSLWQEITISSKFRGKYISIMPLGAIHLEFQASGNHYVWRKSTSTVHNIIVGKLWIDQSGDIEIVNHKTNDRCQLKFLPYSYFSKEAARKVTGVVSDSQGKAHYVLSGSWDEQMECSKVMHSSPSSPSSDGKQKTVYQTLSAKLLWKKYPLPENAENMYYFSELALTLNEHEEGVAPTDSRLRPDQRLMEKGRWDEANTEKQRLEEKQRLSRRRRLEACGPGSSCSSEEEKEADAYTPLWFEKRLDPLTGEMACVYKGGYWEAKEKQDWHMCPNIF
Method: [^3H]-25-Hydroxycholesterol charcoal-dextran binding assay. […] These vectors were transfected into HEK-293T cells using Lipofectamine™2000 (Invitrogen), and 48 h after transfection, on-plate lysis of the transfected cells with the M-Per®/HALT™ with EDTA (ThermoScientific) reagent was performed, followed by ultracentrifugation at 100,000 g. The S100 lysate was diluted to 0.2 mg/mL, aliquoted and stored at −80° C. until use. The HEK-293T OSBP1-, ORP4L- or lacZ-myc-his lysate was incubated with [^3H]-25-hydroxycholesterol at 4° C. for 16 h in 96-well plates. After incubation, charcoal/dextran (C/D) was added to the wells for 30 min of shaking at RT, followed by centrifugation for 15 min at 1900 g to pellet the C/D. The C/D-cleared lysate was added to MicroScint™-20 (PerkinElmer) scintillation fluid, and the remaining protein-bound radiolabel was quantified using a TopCount™ scintillation counter. [^3H]-25-hydroxycholesterol binding curves and competition curves were repeated at least three times.
Lysates were thawed on ice, with brief periods of hand warming. Both the ^3H-25-OHC direct binding assays and the ^3H-25-OHC competition binding assays were set up similarly, with a large stock of binding assay lysate being prepared, then 73.5 μL of the binding assay mixture dispensed using a multi-channel pipettor into “V”-shaped 96-well plates. For the ^3H-25-OHC direct binding assay, 1.5 μL of ^3H-25-OHC and ^3H-25-OHC/40×25-OHC added to the wells in dilutions in 100% ethanol. For the ^3H-25-OHC competition binding assays, ^3H-25-OHC was added to the large stock of binding assay lysate to a final concentration of 20 nM. This ^3H-25-OHC-containing binding lysate was then dispensed using a multi-channel pipettor into the 96-well plates. Then, 1.5 μL of a serial dilution of the inhibitors in either 100% ethanol (25-OHC) or DMSO (the ORPphilins) was added to each well.
The binding lysate used in each well of the 96-well plate consisted of 60 μL of 0.2 mg/mL S100 lysate, 7.5 μL 20% PVA, and 5.6 μL 2M KCl. For ^3H-25-OHC binding curve experiments, 0.4 μL of buffer was then added (total volume per well: 73.5 μL). For the ^3H-25-OHC inhibition competition assays, 0.11 μL of 13.2 μM ^3H-25-OHC and 0.29 μL binding buffer was added for each well (total volume per well: 73.5 μL).
Binding assays were incubated, standing, for 16 h at 4° C. Then 30 μL of the rt C/D solution was multichannel pipetted into new “V’ shaped 96-well plates, and 60 μL of the binding lysate mixture was then added. The plates were briefly, lightly vortexed (˜10 sec), 10 and then rocked at 250 rpm for 30 min at rt. The plates were then centrifuged at 1900 g for 15 min at 4° C. in Microplate Carriers (Sorvall cat. #75006449S) in a Sorvall Legend RT centrifuge. Carefully so as to not disturb the C/D pellet, 30 μL of the supernatant was transferred to 170 μL of Microscint-20 in the OptiPlates. The plates were sealed with the TopSealA-Films, and vigorously vortexed (max speed, >1 min). ^3H-25-OHC detection in the wells was then performed using a TopCount Scintillation detector, counting each well for 2 min. Data was graphed and analyzed using GraphPad PrismS, using non-linear regression to determine KD and K1 values.
Binding experiments were performed at 4° C. for 16 h. Unbound sterol was removed using dextran-coated charcoal, and protein-bound sterol left in the supernatant was quantified by scintillation counting. Ki-values were determined as mean±s.d. from at least three independent experiments.

[5] = molecular target: T2, OSBP1-myc-his (Homo sapiens, UniProt P22059); experiment: [3H]-25-hydroxycholesterol charcoal-dextran binding assay with OSBP1-myc-his; settings: competition with 20 nM [3H]-25-OHC, HEK-293T S100 lysate, 4° C., 16 h; read-out: [^3H]-25-OHC K1 (nM) OSBP1-myc-his
T2 construct: made in house; host or cells: HEK-293T (transient transfection; S100 lysate, not purified)
T2 sequence (P22059 1-807): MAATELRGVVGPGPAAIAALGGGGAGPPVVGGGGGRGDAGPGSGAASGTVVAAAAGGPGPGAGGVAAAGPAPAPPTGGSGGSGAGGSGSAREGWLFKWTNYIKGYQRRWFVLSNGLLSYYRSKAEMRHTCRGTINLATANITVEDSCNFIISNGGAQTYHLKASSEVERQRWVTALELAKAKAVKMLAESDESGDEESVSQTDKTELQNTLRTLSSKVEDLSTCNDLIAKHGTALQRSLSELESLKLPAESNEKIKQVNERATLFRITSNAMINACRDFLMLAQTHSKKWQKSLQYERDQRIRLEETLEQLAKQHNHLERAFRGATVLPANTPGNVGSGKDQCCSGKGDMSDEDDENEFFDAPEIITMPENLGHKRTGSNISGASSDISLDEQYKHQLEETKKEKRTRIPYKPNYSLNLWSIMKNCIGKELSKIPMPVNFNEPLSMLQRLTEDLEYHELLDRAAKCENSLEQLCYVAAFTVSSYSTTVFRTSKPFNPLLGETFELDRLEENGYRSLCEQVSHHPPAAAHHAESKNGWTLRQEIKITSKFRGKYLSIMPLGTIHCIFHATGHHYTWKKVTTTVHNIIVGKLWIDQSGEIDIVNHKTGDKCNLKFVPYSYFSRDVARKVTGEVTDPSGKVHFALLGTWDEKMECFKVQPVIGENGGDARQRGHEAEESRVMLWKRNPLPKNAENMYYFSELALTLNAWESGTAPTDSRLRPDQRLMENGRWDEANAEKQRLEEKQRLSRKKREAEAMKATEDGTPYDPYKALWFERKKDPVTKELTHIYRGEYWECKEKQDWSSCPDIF
Source text: [^3H]-25-Hydroxycholesterol charcoal-dextran binding assay.
Methods are described above in the General Methods section.

[6] = tested on: HCT-116 p21^−/− cells with OSBP1-targeting shRNA; experiment: OSBP1 shRNA knockdown/dose-shift experiment; type: cell-based, human; settings: shOSBP1 vs shNT, 72 h
Source text: FIG. 3A is a series of four bar graphs depicting knockdown/dose-shift experiment in HCT-116 p21^−/− cells stably transfected with either OSBP1-targeting shRNA (shOSBP1) or non-targeting shRNA (shNT). Bars represent s.d. of three or four individual experiments. * P=0.0002 (n=3); ** P=0.0006 (n=4); *** P=0.0003 (n=3) compared to shNT cells (two-tailed students t-test).
To ascertain if the antiproliferative activity of the ORPphilins depended on the levels of OSBP1 and ORP4L in cells, short hairpin RNA (shRNA) knockdown of OSBP1 expression was performed and then its effect on the growth inhibitory activity of 1, 2, and 4a measured. […] Similar results were obtained in HeLa cells. Overexpression of OSBP1-myc-his or ORP4L-myc-his (FIG. 3C) for 48 h desensitized HeLa cells to the antiproliferative activity of 1, 2, or 4a by ˜2-5-fold (FIG. 3D). However, taxol-induced growth inhibition was not affected by overexpression of OSBP1-myc-his or ORP4L-myc-his (FIG. 3D).

[7] = tested on: HeLa cells overexpressing OSBP1(M446W)-myc-his; experiment: Overexpression-viability assay, OSBP1(M446W)-myc-his; type: cell-based; settings: 48 h
Method: (§2) Overexpression-viability assays with wild-type and mutant OSBP/ORP4L constructs were carried out by transfecting HeLa cells with the appropriate plasmids using Lipofectamine™ LTX with PLUS™ reagent (Invitrogen) as instructed, and after 8 h of transfection, the cells were re-plated for the cell viability assay, performed as described above. Expression levels were evaluated by immunoblotting at the time of dosing.
(§3) For additional support that OSBP1 and ORP4L are targets of the ORPphilins, dominant drug-resistant alleles of these proteins were sought. 15 OSBP1 residues inside and outside the region of the protein previously reported to mediate sterol binding were mutated (FIG. 4C). The growth inhibition induced by the ORPphilins was determined in HeLa cells overexpressing either wild-type or mutant OSBP1-myc-his proteins. Expression of wt OSBP1-myc-his and mutant OSBP1-myc-his were nearly equivalent as measured by western blot.
(§4) The same mutant caused a 3.9-fold reduction in the antiproliferative activity of OSW-1 (2) (FIG. 4E2) and a 2.7-fold reduction in the activity of schweinfurthin A (4a) (FIG. 4E3). […] The antiproliferative activity of taxol was unaffected by expression of these two OSBP1 mutant proteins (FIGS. 4E4, 4E8).

[8] = tested on: HeLa cells overexpressing OSBP1-myc-his or ORP4L-myc-his; experiment: Overexpression-viability assay, OSBP1-myc-his or ORP4L-myc-his; type: cell-based; settings: 48 h, vs lacZ
Method: as §2

[9] = tested on: HeLa cells overexpressing OSBP1(V582M); experiment: Overexpression-viability assay, OSBP1(V582M)-myc-his; type: cell-based; settings: 48 h
Method: as §2, §3, §4

[10] = tested on: HCT-116 cells; experiment: Growth inhibition with 25-OHC co-administration; type: cell-based, human; settings: 10 μM 25-OHC for 1 and 2
Method: 25-OHC (11) is a high-affinity ligand of OSBP1 and ORP4L that is not cytotoxic at concentrations up to 10 μM. Example 1 established that the ORPphilins compete with 25-OHC for binding to OSBP1 and ORP4L (FIG. 2D,E). Therefore, if OSBP1 and ORP4L mediate the biological activities of these compounds, co-administration of sub-lethal doses of 25-OHC with the ORPphilins should inhibit binding of the ORPphilins to OSBP1 and ORP4L, thereby desensitizing cells to the cytotoxic effects of the ORPphilins.

[11] = tested on: HCT-116 p21^−/−; settings: cited from earlier work
[12] = tested on: HCT-116 p21^+/+; settings: cited from earlier work

C/C=C(/C)C(=O)O[C@H]1C(C)=C2[C@H]([C@@H]1OC(=O)CCCCCCC)[C@@](C)(OC(C)=O)C[C@H](OC(=O)CCC)[C@@]1(O)[C@H]2OC(=O)[C@@]1(C)O [thapsigargin]
inhibition of SM biosynthesis (negative controls) [1]: did not occur

COc1cc(/C=C/c2cc(O)c(C/C=C(\C)CCC=C(C)C)c(O)c2)cc2c1O[C@]1(C)C[C@@H](O)[C@@H](O)C(C)(C)[C@H]1C2 [Schweinfurthin B, schweinfurthin B]
OSBP1 localization [2]: perinuclear OSBP1-staining similar to 25-OHC

ritterazine B
OSBP1 localization [3]: effect was also observed
Ki [4]: > 360 nM
Ki [5]: 28 ± 4 nM

CC(=O)O[C@H]1C(=O)[C@@]2(C)[C@H]([C@H](OC(=O)c3ccccc3)[C@]3(O)C[C@H](OC(=O)[C@H](O)[C@@H](NC(=O)c4ccccc4)c4ccccc4)C(C)=C1C3(C)C)[C@]1(OC(C)=O)CO[C@@H]1C[C@@H]2O [taxol]
sensitization by OSBP1 knockdown (GI50 shift) [6]: did not sensitize
reduction in antiproliferative activity at the GI50 level, OSBP1(M446W) vs wt OSBP1 [7]: unaffected
desensitization by overexpression of OSBP1-myc-his or ORP4L-myc-his [8]: not affected
inhibition of SM biosynthesis (negative controls) [1]: did not occur
reduction in antiproliferative activity, OSBP1(V582M) vs wt OSBP1 [9]: unaffected
effect of 25-OHC co-administration on the antiproliferative activity [10]: did not affect

CC(/C=C/C=C(C)/C=C/C=C(\C)C(=O)O)=C1/C(=O)C[C@H]2[C@@]3(C)CCC(=O)C(C)(C)[C@@H]3CC[C@]12C [(−)-stellettin E, (−)-Stellettin E]
GI50 [11]: 39 nM
times more cytotoxic to HCT-116 p21−/− than to parental HCT-116 [11]: 117 times
GI50 [12]: 4570 nM
